Here are results for 13 compounds from patent publication US20160046618A1, “Cyclopropyl Fused Thiazin-2-Amine Compounds as Beta-Secretase Inhibitors and Methods of Use” (AMGEN INC., priority 2014, published 2016).

In one assay the target is Recombinant Cat D (Homo sapiens (Human), UniProt P07339). In words: In vitro enzymatic Cathepsin D (Cat D) FRET assay. It counts as biochemical. The settings on record: read-out: IC50 IP (μM) CatD. In short, it runs like this: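 Cleavage of a 20 nM fluorophore/quencher peptide by CHO-expressed recombinant Cat D proceeded for one hour at pH 3.5 (0.05 M citrate, 5 mM CHAPS, 10% DMSO final). Tris addition neutralized the pH to end the reaction. Fluorescence was then measured (ex 500 nm/em 580 nm).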

In assay [1] the test system is Aβ40 in conditioned medium of cells stably expressing Amyloid Precursor Protein (APP). In words: In vitro BACE-1 cell-based assay (Aβ40 sandwich ELISA). The settings on record: read-out: IC50 IP (μM) BACE1 cell. In short, it runs like this:
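Read-out: time-resolved fluorescence (Streptavidin-Europium) of Aβ40 captured by pAb40 and detected with biotinylated 6E10 from supernatants of APP-stable cells. Cells were exposed to compound for 24 h, 10-point dose response, top dose 100 μM or 10 μM, 0.1% DMSO. IC50 fitted to percent of control.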

For another assay, the target named is human recombinant BACE2 (Homo sapiens (Human), UniProt Q9Y5Z0). In words: In vitro enzymatic BACE2 FRET assay. It counts as biochemical. The settings on record: read-out: IC50 IP (μM) BACE2 enzyme. In short, it runs like this: (§1)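 Tris addition raises the pH to neutral to stop the reaction before fluorescence is measured at 590 nm emission with 488 nm excitation.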

The target in the next assay is human recombinant BACE1 (Homo sapiens (Human), UniProt P56817). In words: In vitro enzymatic BACE1 FRET assay. The format is biochemical. The settings on record: read-out: IC50 IP (μM) BACE1 enzyme. In short, it runs like this:
as §1

Structures are written as SMILES.

human recombinant BACE1, sequence (P56817 46-501): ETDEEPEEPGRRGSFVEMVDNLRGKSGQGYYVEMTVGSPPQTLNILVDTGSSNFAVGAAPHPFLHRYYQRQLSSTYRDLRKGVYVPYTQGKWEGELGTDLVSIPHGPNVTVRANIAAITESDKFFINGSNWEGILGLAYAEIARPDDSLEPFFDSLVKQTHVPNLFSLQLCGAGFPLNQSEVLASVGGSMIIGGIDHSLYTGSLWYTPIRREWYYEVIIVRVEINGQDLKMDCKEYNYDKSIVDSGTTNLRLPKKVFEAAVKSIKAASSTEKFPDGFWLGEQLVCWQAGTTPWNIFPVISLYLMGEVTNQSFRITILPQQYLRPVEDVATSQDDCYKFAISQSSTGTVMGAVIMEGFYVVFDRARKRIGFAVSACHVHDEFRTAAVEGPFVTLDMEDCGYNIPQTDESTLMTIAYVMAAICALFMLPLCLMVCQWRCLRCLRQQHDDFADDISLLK
human recombinant BACE2, sequence (Q9Y5Z0 63-518): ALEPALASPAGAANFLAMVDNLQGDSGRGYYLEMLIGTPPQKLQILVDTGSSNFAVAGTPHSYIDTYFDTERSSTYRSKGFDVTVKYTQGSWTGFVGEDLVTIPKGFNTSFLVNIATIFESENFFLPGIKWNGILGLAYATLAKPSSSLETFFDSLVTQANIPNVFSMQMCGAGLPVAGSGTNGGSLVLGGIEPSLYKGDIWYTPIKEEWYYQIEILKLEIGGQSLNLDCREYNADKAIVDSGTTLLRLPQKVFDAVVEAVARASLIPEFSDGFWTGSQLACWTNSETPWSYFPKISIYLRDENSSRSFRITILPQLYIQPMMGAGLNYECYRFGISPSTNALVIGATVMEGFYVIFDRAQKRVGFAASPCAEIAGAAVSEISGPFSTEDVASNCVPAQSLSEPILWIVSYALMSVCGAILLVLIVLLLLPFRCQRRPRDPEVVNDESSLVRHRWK
Recombinant Cat D, sequence (P07339 65-412): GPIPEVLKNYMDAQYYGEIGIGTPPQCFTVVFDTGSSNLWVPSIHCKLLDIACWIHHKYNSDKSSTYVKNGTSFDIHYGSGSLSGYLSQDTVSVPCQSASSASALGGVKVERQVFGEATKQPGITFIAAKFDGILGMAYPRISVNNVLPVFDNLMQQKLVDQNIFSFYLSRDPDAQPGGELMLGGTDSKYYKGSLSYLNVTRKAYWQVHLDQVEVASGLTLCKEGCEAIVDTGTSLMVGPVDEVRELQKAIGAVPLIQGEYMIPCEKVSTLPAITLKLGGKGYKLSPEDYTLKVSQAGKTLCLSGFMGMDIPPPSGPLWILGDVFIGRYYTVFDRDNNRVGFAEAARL

With `C#CCOc1cnc2c(Nc3cc(C(=O)OC)c(F)c([C@@]4(C)N=C(N)S[C@@]5(C(=O)OC)C[C@H]54)c3)nccc2n1` [Example 856, (1S,5S,6S)-methyl 3-amino-5-(2-fluoro-3-(methoxycarbonyl)-5-((2-(prop-2-yn-1-yloxy)pyrido[3,4-b]pyrazin-5-yl)amino)phenyl)-5-methyl-2-thia-4-azabicyclo[4.1.0]hept-3-ene-1-carboxylate], the IC50 at Recombinant Cat D turned out to be 116 µM; in assay [1], 0.249 µM; at human recombinant BACE2 it was 0.657 µM; at human recombinant BACE1 it was 0.071 µM.

Consider `CC(C)Oc1cnc2c(Nc3cc(F)c(F)c([C@@]4(C)N=C(N)S[C@@]5(C(F)F)C[C@@H]45)c3)nccc2n1` [Example 876, N-(3-((1S,5S,6S)-3-amino-1-(difluoromethyl)-5-methyl-2-thia-4-azabicyclo[4.1.0]hept-3-en-5-yl)-4,5-difluorophenyl)-2-(1-methylethoxy)pyrido[3,4-b]pyrazin-5-amine], for which the half-maximal inhibitory concentration (IC50) on Recombinant Cat D was 223 µM; in assay [1], 0.587 µM; on human recombinant BACE2, 0.912 µM; at human recombinant BACE1, 0.0801 µM.

With `CC1(NC(=O)[C@]23C[C@H]2[C@@](C)(c2cc(NC(=O)c4cnc(OCC(F)(F)F)cn4)ccc2F)N=C(N)S3)CC1` [Example 1041, (1S,5S,6S)-3-amino-5-(2-fluoro-5-(5-(2,2,2-trifluoroethoxy)pyrazine-2-carboxamido)phenyl)-5-methyl-N-(1-methylcyclopropyl)-2-thia-4-azabicyclo[4.1.0]hept-3-ene-1-carboxamide], the IC50 stood at 324 µM at Recombinant Cat D, 0.00692 µM in assay [1], 0.222 µM on human recombinant BACE2 and 0.00176 µM on human recombinant BACE1.

`COC[C@]12C[C@H]1[C@@](CF)(c1cc(Nc3nccc4cc(C#N)cnc34)ccc1F)N=C(N)S2` [Example 717, 8-((3-((1S,5S,6S)-3-amino-5-(fluoromethyl)-1-(methoxymethyl)-2-thia-4-azabicyclo[4.1.0]hept-3-en-5-yl)-4-fluorophenyl)amino)-1,7-naphthyridine-3-carbonitrile]: the half-inhibitory concentration (IC50) on Recombinant Cat D is more than 400 µM; in assay [1], 0.0239 µM; on human recombinant BACE2 it was 0.00332 µM; on human recombinant BACE1, 0.0072 µM.

As to `Cc1noc(COc2cnc3c(Nc4ccc(F)c([C@@]5(CF)N=C(N)S[C@@]6(CF)C[C@H]65)c4)nccc3n2)n1` [Example 880, N-(3-((1S,5S,6S)-3-amino-1,5-bis(fluoromethyl)-2-thia-4-azabicyclo[4.1.0]hept-3-en-5-yl)-4-fluorophenyl)-2-((3-methyl-1,2,4-oxadiazol-5-yl)methoxy)pyrido[3,4-b]pyrazin-5-amine], the IC50 on Recombinant Cat D came to 1110 µM; in assay [1], 0.0193 µM; on human recombinant BACE2 it was 0.27 µM; at human recombinant BACE1 it was 0.00452 µM.

Consider `C[C@]1(c2cc(Nc3nccc4nc(OCCN5CCCC5=O)cnc34)cc(F)c2F)N=C(N)S[C@@]2(C(F)F)C[C@@H]12` [Example 893, 1-(2-((5-((3-((1S,5S,6S)-3-amino-1-(difluoromethyl)-5-methyl-2-thia-4-azabicyclo[4.1.0]hept-3-en-5-yl)-4,5-difluorophenyl)amino)pyrido[3,4-b]pyrazin-2-yl)oxy)ethyl)-2-pyrrolidinone], for which the IC50 turned out to be 518 µM at Recombinant Cat D, 1.66 µM in assay [1], 3.86 µM on human recombinant BACE2 and 0.149 µM at human recombinant BACE1.

As to `C#CCOc1cnc2c(Nc3ccc(F)c([C@@]4(C)N=C(N)S[C@@]5(C(=O)N6CCCC6)C[C@H]54)c3)nccc2n1` [Example 632, N-(3-((1S,5S,6S)-3-amino-5-methyl-1-(1-pyrrolidinylcarbonyl)-2-thia-4-azabicyclo[4.1.0]hept-3-en-5-yl)-4-fluorophenyl)-2-(2-propyn-1-yloxy)pyrido[3,4-b]pyrazin-5-amine], the 50% inhibitory concentration (IC50) was found to be 961 µM at Recombinant Cat D, 0.000535 µM in assay [1], 0.00302 µM on human recombinant BACE2 and 0.000715 µM on human recombinant BACE1.

As for `COC[C@]12C[C@H]1[C@@](C)(c1cc(NC(=O)c3cnc(O[C@H](C)C(F)(F)F)cn3)ccc1F)N=C(N)S2` (single isomer, unassigned) [Example 996], the concentration for half-maximal inhibition (IC50) came out at 1640 µM on Recombinant Cat D, 0.12 µM in assay [1], 0.807 µM at human recombinant BACE2 and 0.123 µM on human recombinant BACE1.

With `C#C[C@H](C)Oc1cnc(C(=O)Nc2ccc(F)c([C@@]3(C)N=C(N)S[C@@]4(C(=O)NC(C)(C)C)C[C@H]43)c2)cn1` [Example 994, (1S,5S,6S)-3-amino-N-tert-butyl-5-(2-fluoro-5-(((5-(((1S)-1-methyl-2-propyn-1-yl)oxy)-2-pyrazinyl)carbonyl)amino)phenyl)-5-methyl-2-thia-4-azabicyclo[4.1.0]hept-3-ene-1-carboxamide], the IC50 on Recombinant Cat D was determined as 215 µM; in assay [1], 0.00116 µM; at human recombinant BACE2 it was 0.0689 µM; at human recombinant BACE1, 0.00069 µM.

In the case of `CC(C)(O)[C@@]12SC(N)=N[C@](C)(c3cc(NC(=O)c4ccc(Cl)cn4)ccc3F)[C@@H]1C2(F)F` [Example 711, N-(3-((1S,5S,6R)-3-amino-7,7-difluoro-1-(1-hydroxy-1-methylethyl)-5-methyl-2-thia-4-azabicyclo[4.1.0]hept-3-en-5-yl)-4-fluorophenyl)-5-chloro-2-pyridinecarboxamide], the half-maximal inhibitory concentration (IC50) was 753 µM on Recombinant Cat D, 0.014 µM in assay [1], less than 0.00203 µM at human recombinant BACE2 and 0.00311 µM at human recombinant BACE1.

Regarding `C#CCOc1cnc(C(=O)Nc2cc(F)c(F)c([C@@]3(C)N=C(N)S[C@@]4(COCC)C[C@H]43)c2)cn1` [Example 1046, N-(3-((1S,5S,6S)-3-amino-1-(ethoxymethyl)-5-methyl-2-thia-4-azabicyclo[4.1.0]hept-3-en-5-yl)-4,5-difluorophenyl)-5-(2-propyn-1-yloxy)-2-pyrazinecarboxamide], the IC50 turned out to be 43.5 µM at Recombinant Cat D, 0.0162 µM in assay [1], 0.0307 µM at human recombinant BACE2 and 0.00037 µM at human recombinant BACE1.

On to `CN(C)C(=O)/C=C/[C@]12C[C@H]1[C@@](CF)(c1cc(Nc3ncnc4cc(OCc5ncco5)cnc34)ccc1F)N=C(N)S2` [Example 775, (2E)-3-((1R,5S,6S)-3-amino-5-(fluoromethyl)-5-(2-fluoro-5-((7-(1,3-oxazol-2-ylmethoxy)pyrido[3,2-d]pyrimidin-4-yl)amino)phenyl)-2-thia-4-azabicyclo[4.1.0]hept-3-en-1-yl)-N,N-dimethyl-2-propenamide], for which the IC50 on Recombinant Cat D came out at 22.8 µM; in assay [1], 0.00323 µM; on human recombinant BACE2, 0.0602 µM; at human recombinant BACE1, 0.00112 µM.

Regarding `CC(C)(O)[C@]12C[C@H]1[C@@](C)(c1cc(Nc3ncnc4cc(C#N)cnc34)cc(F)c1F)N=C(N)S2` [Example 909, 4-((3-((1S,5S,6S)-3-amino-1-(1-hydroxy-1-methylethyl)-5-methyl-2-thia-4-azabicyclo[4.1.0]hept-3-en-5-yl)-4,5-difluorophenyl)amino)pyrido[3,2-d]pyrimidine-7-carbonitrile], the concentration for half-maximal inhibition (IC50) on Recombinant Cat D amounted to 6.84 µM; in assay [1], 0.0144 µM; at human recombinant BACE2, 0.183 µM; at human recombinant BACE1 it was 0.0257 µM.

What is called IC50 is the point on the concentration scale where inhibition reaches its midpoint.
